Assay results reported in ChEMBL document CHEMBL1125280, “Direct prediction of dissociation constants (pKa's) of clonidine-like imidazolines, 2-substituted imidazoles, and 1-methyl-2-substituted-imidazoles from 3D structures using a comparative molecular field analysis (CoMFA) approach” (J Med Chem, 1991).

Test: Ionization constant (pKa)
Format: physicochemical

Question: Which pKa does the source give for Cn1ccnc1N here?
Answer: The pKa was 8.54.

Question: Which pKa does the source give for Cc1cc(Cl)c(N=C2NCCN2)c(Cl)c1 here?
Answer: The pKa was 8.29.

Question: Which pKa does the source give for Clc1cc(Br)cc(Cl)c1N=C1NCCN1 here?
Answer: The pKa was 7.72.

Question: With Cc1ccc(NC2=NCCN2)c(Cl)c1 [TOLONIDINE] as the molecule, how does the pKa read?
Answer: The pKa was 9.41.

Question: For CSc1ncc[nH]1, which pKa is on record?
Answer: The pKa was 5.95.

Question: Which pKa does the source give for Cc1ccc(N=C2NCCN2)c(C)c1 here?
Answer: Its pKa is 10.6.

Question: With Cn1ccnc1[N+](=O)[O-] as the molecule, how does the pKa read?
Answer: Its pKa is -0.48.

Question: For c1ccc(-c2ncc[nH]2)cc1 [2-PHENYLIMIDAZOLE], which pKa is on record?
Answer: Its pKa is 6.48.

Question: With Cc1ccccc1N=C1NCCN1 as the molecule, how does the pKa read?
Answer: The pKa was 10.2.

Question: With Cc1cc(Cl)cc(Cl)c1N=C1NCCN1 as the molecule, how does the pKa read?
Answer: The pKa was 9.03.

Question: For Clc1cc(Cl)c(N=C2NCCN2)c(Cl)c1, which pKa is on record?
Answer: The pKa was 7.75.

Question: For c1ccc(NC2=NCCN2)cc1, which pKa is on record?
Answer: The pKa was 10.1.

Question: For Nc1ncc[nH]1, which pKa is on record?
Answer: Its pKa is 8.46.

Question: Which pKa does the source give for Brc1ncc[nH]1 here?
Answer: Its pKa is 3.79.

Question: Which pKa does the source give for Fc1cccc(F)c1N=C1NCCN1 here?
Answer: Its pKa is 8.18.

Question: Which pKa does the source give for Cn1ccnc1Br here?
Answer: The pKa was 3.82.

Question: Which pKa does the source give for Fc1cccc(Cl)c1N=C1NCCN1 here?
Answer: The pKa was 8.01.

Question: With CCc1cccc(CC)c1NC1=NCCN1 as the molecule, how does the pKa read?
Answer: The pKa was 10.6.

Question: With Cc1cc(Br)cc(C)c1N=C1NCCN1 as the molecule, how does the pKa read?
Answer: Its pKa is 10.2.

Question: With Cn1ccnc1F as the molecule, how does the pKa read?
Answer: Its pKa is 2.3.

Question: For Clc1ccc(N=C2NCCN2)c(Cl)c1, which pKa is on record?
Answer: Its pKa is 8.73.

Question: For O=[N+]([O-])c1cc(Cl)c(N=C2NCCN2)c(Cl)c1, which pKa is on record?
Answer: The pKa was 6.86.

Question: With Clc1cccc(N=C2NCCN2)c1Cl as the molecule, how does the pKa read?
Answer: The pKa was 8.55.

Question: For Clc1ncc[nH]1, which pKa is on record?
Answer: The pKa was 3.55.

Question: With Clc1ccc(Cl)c(N=C2NCCN2)c1 as the molecule, how does the pKa read?
Answer: The pKa was 8.5.

Question: For Cc1cccc(C)c1N=C1NCCN1, which pKa is on record?
Answer: Its pKa is 10.5.

Question: With Cn1ccnc1 [1-METHYLIMIDAZOLE] as the molecule, how does the pKa read?
Answer: The pKa was 7.12.

Question: Which pKa does the source give for Cc1cc(Cl)ccc1N=C1NCCN1 here?
Answer: The pKa was 9.99.

Question: For Cc1cc(Cl)cc(C)c1N=C1NCCN1, which pKa is on record?
Answer: The pKa was 10.2.

Question: Which pKa does the source give for Cc1cc(C)c(N=C2NCCN2)c(C)c1 here?
Answer: Its pKa is 10.8.

Question: Which pKa does the source give for CCc1ncc[nH]1 here?
Answer: The pKa was 7.73.

Question: Which pKa does the source give for Cc1cccc(Cl)c1N=C1NCCN1 here?
Answer: Its pKa is 9.4.

Question: With O=[N+]([O-])c1ncc[nH]1 [AZOMYCIN] as the molecule, how does the pKa read?
Answer: Its pKa is -0.81.

Question: For Clc1ccccc1N=C1NCCN1, which pKa is on record?
Answer: Its pKa is 9.15.

Question: For Brc1cccc(Br)c1N=C1NCCN1, which pKa is on record?
Answer: Its pKa is 7.8.

Question: Which pKa does the source give for Brc1cc(Br)c(N=C2NCCN2)c(Br)c1 here?
Answer: Its pKa is 7.46.

Question: For Clc1cccc(Br)c1N=C1NCCN1, which pKa is on record?
Answer: Its pKa is 7.93.

Question: For Fc1ncc[nH]1, which pKa is on record?
Answer: The pKa was 2.4.

Question: Which pKa does the source give for c1ccn(-c2ncc[nH]2)c1 here?
Answer: The pKa was 5.36.

Question: For Cc1ncc[nH]1, which pKa is on record?
Answer: Its pKa is 7.86.

Question: With Cc1cc(C)c(N=C2NCCN2)c(Cl)c1 as the molecule, how does the pKa read?
Answer: The pKa was 9.59.

Question: For COc1cc(Cl)c(N=C2NCCN2)c(Cl)c1, which pKa is on record?
Answer: Its pKa is 8.57.
